# Assay results: patent US11814366B2, “Antiviral compounds and use thereof” (UNIVERSITA DEGLI STUDI DI SIENA, priority 2018, dated 2023)
# Entries after “also recorded” stand apart in the source; their conditions may differ.
# Assays:
# [1] = Cell viability (MTS) assay, Hep-2 cells; format: cell-based; conditions: human, conditions of the RSV assay
# Description: (§1) Cell viability was measured using the MITS [3-(4,5-dimethylthiazol-2-yl)-5-(3 carboxy methoxy phenyl)-2-(4-sulfophenyl)-2H-tetrazolium] assay. Cell cultures were seeded in 96-well plates and were incubated with different concentrations of compounds of the invention in triplicate under the same experimental conditions described for the antiviral assays. Cell viability was determined using the CellTiter 96 Proliferation Assay Kit (Promega, Madison, WI, USA) according to the manufacturer's instructions. Absorbances were measured using a Microplate Reader (Model 680, BIORAD) at 490 nm. The effect on cell viability at different concentrations of the compound was expressed as a percentage, by comparing absorbances of treated cells with those of cells incubated with culture medium and equal volumes of vehicle. The 50% cytotoxic concentrations (CC50) and 95% confidence intervals (CIs) were determined using Prism software (Graph-Pad Software, San Diego, CA).
# [2] = Cell viability (MTS) assay, HeLa cells; format: cell-based, human; conditions: human, HeLa cells; conditions of the HPV-16 assay
# Description: as §1
# [3] = tested on: HeLa cells; test: Cell viability (MTS) assay, HeLa cells; format: cell-based, human; conditions: conditions of the Ad5 assay
# Description: as §1
# [4] = tested on: HSV-2; test: Binding of virus to cell (ELISA, immunofluorescence); format: cell-based, Herpes 2 virus (HSV-2); conditions: 10 μM, HSV-2, Vero cells
# Description: Vero Cells were plated in 96 well plates. The following day 10 μM of compound 15b in DMSO and HSV-2 (MOI 10 pfu/cell) were incubated for 1 h at 37° C. and subsequently added on cells for 2 hours at 4° C. Cells were then fixed with 4% paraformaldehyde, air dried, and blocked with 5% bovine serum albumin (BSA) in phosphate-buffered saline (PBS)-Tween. Binding of virus to vero cells was detected using the polyclonal HSV-2 antibody (Dako, Denmark) (diluted 1:250) incubated for 1 h at room temperature, washed three times with PBS-Tween, and incubated for 1 h at 37° C. with anti-rabbit conjugated to horseradish peroxidase (1:500). At the end of incubation, plates were washed three times with PBS-Tween, ABTS[2,2-azinobis(3-ethyl benz thiazoline sulfonic acid)] (A1888 SIGMA ALDRICH) substrate was added for 30 minutes (Thermo Scientific, Rockford, IL), and the absorbance at 405 nm was read.
# Vero cells were pre-plated on coverslips and the following day the binding or entry protocol described above was applied. […] Rhodamine conjugated anti-rabbit IgG (Santa Cruz) was then added on cells for 1 h at 37° C. following 3 washes coverslips were mounted on microscope glasses and observed with Zeiss LSM510 fluorescence microscope (Zeiss, Oberkochen, Germany) and images were acquired (FIG. 3A, 3B).
# [5] = Cytotoxicity, XTT test; conditions: human
smiles,measurement,setting,value
"O=C1NC(=S)N(CCc2ccccc2)C(=O)/C1=C\c1ccc(-c2ccc(C(=O)O)c(O)c2)[nH]1 [Compound 15b, (Z)-4-(5-((4,6-dioxo-1-phenethyl-2-thioxotetrahydropyrimidin-5(2H)-ylidene)methyl)-1H-pyrrol-2-yl)-2-hydroxybenzoic Acid]",CC50,[1],241 µM
same,CC50,[2],> 300 µM
same,CC50,[3],> 300 µM
same,viral binding / percentage of bound virus,[4],not impairing viral binding; also recorded: the same
same,CC50,[5],> 20 µM
